Publication PMC11808397, “Development of selective nanomolar cyclic peptide ligands as GBA1 enzyme stabilisers” (RSC Chemical Biology, 2025)
Positions of bridges follow the written chain, without caps; N, C: chain ends. Non-standard residues stand in square brackets, D forms with d. Residues, ends and D or L forms follow the SMILES beside them.

How the values were obtained:
GBA2 = biological target: T1, GBA2 (Homo sapiens, UniProt Q9HCG7); experiment: GBA2 inhibition in overexpressing HEK293T lysates; format: biochemical; conditions: McIlvaine pH 5.8, 4-MU substrate
T1 construct: expressed in transfected cells
T1 sequence (Q9HCG7 1-927): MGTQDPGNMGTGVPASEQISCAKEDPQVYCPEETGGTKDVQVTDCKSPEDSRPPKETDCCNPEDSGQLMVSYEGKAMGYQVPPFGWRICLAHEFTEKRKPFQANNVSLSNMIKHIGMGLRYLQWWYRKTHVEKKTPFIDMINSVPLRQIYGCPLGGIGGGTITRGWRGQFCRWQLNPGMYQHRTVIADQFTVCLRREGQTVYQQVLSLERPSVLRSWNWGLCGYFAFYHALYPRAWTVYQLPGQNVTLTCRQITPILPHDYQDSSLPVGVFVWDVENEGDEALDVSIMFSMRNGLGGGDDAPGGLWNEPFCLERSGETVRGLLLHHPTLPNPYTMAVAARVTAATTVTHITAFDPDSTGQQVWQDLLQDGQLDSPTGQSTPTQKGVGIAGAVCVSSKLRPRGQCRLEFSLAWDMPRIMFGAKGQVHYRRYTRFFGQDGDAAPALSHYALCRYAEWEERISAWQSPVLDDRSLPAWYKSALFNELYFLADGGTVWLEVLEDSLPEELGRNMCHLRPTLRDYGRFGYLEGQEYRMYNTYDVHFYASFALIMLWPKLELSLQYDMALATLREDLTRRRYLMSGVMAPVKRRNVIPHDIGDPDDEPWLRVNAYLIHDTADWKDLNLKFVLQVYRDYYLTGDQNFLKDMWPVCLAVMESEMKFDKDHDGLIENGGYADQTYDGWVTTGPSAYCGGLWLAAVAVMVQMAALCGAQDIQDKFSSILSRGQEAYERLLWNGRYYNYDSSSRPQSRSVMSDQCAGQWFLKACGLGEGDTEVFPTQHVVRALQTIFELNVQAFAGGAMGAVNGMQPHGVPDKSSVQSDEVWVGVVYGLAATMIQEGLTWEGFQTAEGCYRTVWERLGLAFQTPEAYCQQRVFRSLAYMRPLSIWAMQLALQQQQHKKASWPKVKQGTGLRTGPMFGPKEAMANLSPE
Procedure: Based on the pull-down validation, a set of eight cyclic peptides (L1, L2, L4, L6, D1, D8, D12 and D13) were identified, synthesized, and evaluated for their inhibitory potency against recombinant human GBA1 (rhGBA1, Cerezyme®) and their selectivity over human β-glucosidases GBA2 and GBA3. Half-maximum inhibitory concentration (IC50) values for β-glucosidases were determined in vitro by measuring hydrolysis of 4-methylumbelliferyl-β-D-glucopyranoside (4-MU-β-D-Glu) fluorogenic substrate. […]
2.5. In vitro IC50 and Ki measurements […]
nM) at 37 °C for 30 min. Following this, 100 µL of 4MU substrate was added and the samples were again incubated at 37 °C for 30 min. The reaction was quenched using excess 1 M NaOH-glycine (200 µL, pH 10.3) and 4MU fluorescence was measured using a LS55 fluorimeter (λEx 366 nm and λEm 445 […]
GBA2 and GBA3 IC50 values were determined following a similar protocol,5 using stable GBA2 or GBA3 HEK293T over-expression cell lysates and McIlvaine buffer pH 5.8 with 0.1 % BSA (w/v) and 100 mM HEPES with 0.1 % BSA, respectively. Covalent inhibitor of endogenous GBA1 (1 µM Bodipy green-cyclophellitol β-epoxide activity based probe) was added for both GBA2 and GBA3 assays, and GBA2 inhibitor N-(5-adamantane-1-yl-methoxy-pentyl)-deoxynojirimycin, AMP-DNM at 1 nM) was added for GBA3 assay. Cell lysates were pre-incubated with the aforementioned GBA1/GBA2 inhibitors for 30 min at 37 °C (12.5 µL) and subsequently incubated with the tested ligands at a range of concentrations for 30 min at 37 °C (12.5 µL), after which 100 µL 4MU-β-D-glucopyranoside was added for a final incubation of 30 min at 37 °C, quenched with 200 µL 1 M NaOH-glycine (pH 10.3) and fluorescence was measured. IC50 values were calculated using GraphPad Prism version 8.

[1] = Intrinsic stability of cyclic peptides in plasma; format: in vitro ADME; conditions: 0.1 μM in human plasma, 2 h at 37°C, then rhGBA1 10 nM 30 min, 4-MU activity read-out; n=3, technical duplicates
Procedure: Specifically, high concentrations of all peptides (10–1 μM) led to enzyme binding but also GBA1 inhibition after short incubations (0 to 30 minutes). […] To discard potential degradation of D8 and D12 during plasma experiments, the peptides were incubated in plasma at 0.1 μM for 2 hours, followed by the addition of rhGBA1 to measure its activity. This was compared to controls where D8 and D12 were added to plasma and directly tested for GBA1 activity.
Selective Cyclic Peptide Ligands as GBA1 Stabilizers Katzy et al.
Figure S10. Cerezyme (10 nM) stability in McIlvaine buffer pH 5.2 or in plasma of a healthy individual. GBA1 activity measured in n=3 replicates, in technical duplicates.
Figure S11. Intrinsic compounds stability of cyclic peptides D8 and D12 (0.1 µM) in plasma. rhGBA1 (10 nM) was added to compounds pre-incubated in plasma for 2h at 37°C or readily dissolved in DMSO, and incubated for 30 min, after which 4-MU activity was measured. Error ranges depict standard deviations from n=3 replicates, measured in technical duplicates.
Table S1. IC50 values for GBA1 inhibition in fibroblast lysates. Cells were treated with the peptides at increasing concentrations for 16 h, washed with PBS and homogenized. Reported values are mean ± standard deviation from 3 technical triplicates. N.D.: not determined.
Peptide GBA1 in fibroblast lysates
(1 picture or pasted object on this page, not shown here)

[2] = biological target: T2, recombinant human GBA1 (rhGBA1, Cerezyme) (Homo sapiens, UniProt P04062, R534H); experiment: Thermostability of rhGBA1, label-free differential scanning fluorimetry (Tycho NT.6); format: binding; conditions: rhGBA1 at 1 μM, 20 mM HEPES pH 7.0, 100 mM NaCl, 0.5% DMSO, 2 h room temperature; N. D. = not determined due to a lack of stabilisation effect
T2 construct: purchased Cerezyme
T2 sequence (P04062 40-536 R534H): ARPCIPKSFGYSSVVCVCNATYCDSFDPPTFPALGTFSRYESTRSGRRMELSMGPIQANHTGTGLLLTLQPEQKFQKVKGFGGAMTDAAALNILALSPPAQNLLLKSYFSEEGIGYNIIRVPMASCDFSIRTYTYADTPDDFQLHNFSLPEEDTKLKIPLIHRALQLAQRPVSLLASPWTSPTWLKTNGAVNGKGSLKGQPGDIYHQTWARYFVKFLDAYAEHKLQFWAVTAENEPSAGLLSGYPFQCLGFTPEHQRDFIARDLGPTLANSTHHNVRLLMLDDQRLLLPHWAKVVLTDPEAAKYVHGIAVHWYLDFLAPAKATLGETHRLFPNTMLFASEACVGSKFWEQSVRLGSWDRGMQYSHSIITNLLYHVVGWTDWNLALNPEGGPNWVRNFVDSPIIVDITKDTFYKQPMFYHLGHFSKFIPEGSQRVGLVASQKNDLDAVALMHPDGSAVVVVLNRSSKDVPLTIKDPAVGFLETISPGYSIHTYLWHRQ
Procedure: Samples were incubated at room temperature for 2
hours before measurement in the Tycho NT6.
Thermostability assays in rhGBA (Cerezyme)
Varying concentrations of peptides were incubated with 1 µM rhGBA1 in 20 mM HEPES pH 7.0 with 100 mM NaCl, with a final DMSO concentration of 0.5 %, for 2 hours at room temperature. Melting
curves were determined in triplicate using the Tycho NT.6 (NanoTemper), according to manufacturer

For `CC[C@H](C)[C@H](NC(=O)[C@H](CC(C)C)NC(=O)[C@H](Cc1ccc(O)cc1)NC(=O)[C@H](Cc1ccc(O)cc1)NC(=O)[C@@H]1CSCC(=O)N[C@H](Cc2ccc(O)cc2)C(=O)N[C@@H](CCCNC(=N)N)C(=O)N[C@@H](C(C)C)C(=O)N1)C(=O)N[C@H](C(=O)N[C@H](C(=O)N[C@@H](CC(C)C)C(=O)N[C@@H](CC(=O)O)C(=O)N[C@@H](CS)C(N)=O)C(C)C)[C@@H](C)O` [D1] ({CH2CO}-[dY]RVCYYLITVLDC-NH2; thioether N-4), the IC50 (GBA2) was > 100000 nM.
For `CC(C)C[C@H](NC(=O)[C@@H](NC(=O)[C@H](CCCNC(=N)N)NC(=O)[C@@H]1CSCC(=O)N[C@H](Cc2ccc(O)cc2)C(=O)N[C@@H]([C@@H](C)O)C(=O)N2CCC[C@H]2C(=O)NCC(=O)N[C@@H](Cc2ccc(O)cc2)C(=O)N[C@@H](C(C)C)C(=O)N[C@@H](Cc2ccc(O)cc2)C(=O)N1)C(C)C)C(=O)N[C@@H](CCCCN)C(=O)N[C@@H](Cc1ccc(O)cc1)C(=O)N[C@@H](CS)C(N)=O` [D8] ({CH2CO}-[dY]TPGYVYCRVLKYC-NH2; thioether N-8), the “peptide stability in plasma (inhibitory activity after pre-incubation)” value [1] was “retained their inhibitory activity against rhGBA1”, the EC50 [2] was 2200 ± 500 nM and the IC50 (GBA2) was > 100000 nM.
In the case of `CC(C)C[C@@H]1NC(=O)CNC(=O)[C@H](CC(C)C)NC(=O)[C@@H](Cc2ccc(O)cc2)NC(=O)CSC[C@@H](C(N)=O)NC(=O)[C@H](CO)NC(=O)[C@H](CCCCN)NC(=O)[C@H](CC(C)C)NC(=O)[C@H](Cc2ccccc2)NC(=O)[C@H](CCCNC(=N)N)NC(=O)[C@H](Cc2ccc(O)cc2)NC(=O)[C@H](Cc2c[nH]c3ccccc23)NC1=O` [D12] ({CH2CO}-[dY]LGLWYRFLKSC-NH2; thioether N-12), the “peptide stability in plasma (inhibitory activity after pre-incubation)” value [1] is reported as “retained their inhibitory activity against rhGBA1”, the EC50 [2] is reported as 1900 ± 400 nM and the IC50 (GBA2) is reported as > 100000 nM.
With `CC[C@H](C)[C@@H]1NC(=O)[C@H](CO)NC(=O)[C@H](CS)NC(=O)CNC(=O)CNC(=O)[C@H](CC(C)C)NC(=O)[C@H](Cc2ccc(O)cc2)NC(=O)[C@H](C(C)C)NC(=O)[C@H](CC(C)C)NC(=O)[C@H](CCCNC(=N)N)NC(=O)[C@@H]2CCCN2C(=O)[C@H](Cc2ccc(O)cc2)NC(=O)CSC[C@@H](C(N)=O)NC(=O)[C@H](CCC(=O)O)NC(=O)[C@H](CC(C)C)NC(=O)[C@H](CC(C)C)NC1=O` [L1] ({CH2CO}-YPRLVYLGGCSILLEC-NH2; thioether N-16) the IC50 (GBA2) was > 100000 nM.
With `CC[C@H](C)[C@H](NC(=O)[C@H](CCCNC(=N)N)NC(=O)[C@@H]1CSCC(=O)N[C@@H](Cc2ccc(O)cc2)C(=O)N[C@@H](C)C(=O)N[C@@H](Cc2ccc(O)cc2)C(=O)N[C@@H](Cc2c[nH]c3ccccc23)C(=O)N[C@@H](Cc2c[nH]c3ccccc23)C(=O)N[C@@H](CC(C)C)C(=O)N1)C(=O)N1CCC[C@H]1C(=O)N[C@@H](Cc1c[nH]c2ccccc12)C(=O)N[C@@H](CC(C)C)C(=O)N[C@@H](CO)C(=O)N[C@H](C(N)=O)C(C)C` [L2] ({CH2CO}-YAYWWLCRIPWLSV-NH2; thioether N-7) the EC50 [2] was 2000 ± 500 nM and the IC50 (GBA2) was > 100000 nM.
With `CC(C)C[C@@H]1NC(=O)CNC(=O)[C@H](Cc2ccccc2)NC(=O)[C@H](CC(C)C)NC(=O)[C@@H]2CCCN2C(=O)[C@H](Cc2ccc(O)cc2)NC(=O)CSC[C@@H](C(=O)N2CCC[C@H]2C(=O)N[C@@H](CC(N)=O)C(=O)N[C@@H](Cc2c[nH]c3ccccc23)C(=O)N[C@@H](Cc2ccccc2)C(=O)N2CCC[C@H]2C(=O)N[C@@H](Cc2ccc(O)cc2)C(=O)N[C@@H](CCC(N)=O)C(=O)N[C@@H](CS)C(N)=O)NC(=O)[C@H](CO)NC(=O)[C@H](Cc2ccccc2)NC1=O` [L4] ({CH2CO}-YPLFGLFSCPNWFPYQC-NH2; thioether N-9) the EC50 [2] was 2600 ± 1100 nM and the IC50 (GBA2) was > 100000 nM.
With `CC[C@H](C)[C@@H]1NC(=O)[C@H](Cc2ccc(O)cc2)NC(=O)CSC[C@@H](C(N)=O)NC(=O)[C@H](Cc2c[nH]c3ccccc23)NC(=O)[C@H](CCC(N)=O)NC(=O)[C@H]([C@@H](C)CC)NC(=O)[C@H]([C@@H](C)CC)NC(=O)[C@@H]2CCCN2C(=O)[C@H](C(C)C)NC(=O)[C@H](Cc2ccc(O)cc2)NC(=O)[C@H](Cc2c[nH]c3ccccc23)NC(=O)[C@H](CO)NC1=O` [L6] ({CH2CO}-YISWYVPIIQWC-NH2; thioether N-12) the IC50 (GBA2) was > 100000 nM.
